Target: Human TRPA1 (Homo sapiens, UniProt O75762)
Experiment: Assay 1: In vitro cellular testing of TRPA1 modulation (CHO-TREx, Fluo-3 calcium fluorescence, AITC agonist)
Format: cell-based
Set-up: expressed in transfected cells; host or cells: CHO-TREx cells (Invitrogen), vector pcDNA4/TO
Conditions: CHO-TREx cells expressing human TRPA1; Fluo-3 fluorescence (FLIPR/Tetra); agonist 15 μM allyl isothiocyanate (AITC); 30 minute antagonist incubation
Experimental: Assay 1: In Vitro Cellular Testing of TRPA1 Modulation
Human TRPA1 (NCBI accession number NM_007332.1) was cloned into pcDNA4/TO. CHO-TREx cells (Invitrogen, Carlsbad, Calif.) were stably transfected with pcDNA4/TO-TRPA1 using lipofection to generate a clonal cell line that expressed human TRPA1 in a tetracycline-inducible manner. Culture medium used was Ham's F-12 supplemented with 10% fetal bovine serum, 2 mM L-glutamine, 5 μg/ml blasticidin and 200 μg/ml zeocin. Cells were seeded in black-walled clear-bottom 96-well plates at a density of 50,000 cells per well and cultured overnight at 37° C. with 5% CO2 in culture medium supplemented with 1 μg/ml tetracycline. On the day of the experiment, cells were washed 3 times with HEPES buffered saline (in mM: NaCl 137, MgCl2 0.5, KCl 2, dextrose 5, CaCl2 2 and HEPES 10; pH 7.4). Cells were then loaded with calcium-sensitive fluorescent dye by incubation in the presence of 4 μM Fluo-3 AM (TefLabs, Austin, Tex.) at room temperature in the dark for 60 minutes. After incubation with dye, cells were washed in assay buffer and, if appropriate, antagonists were added at this time. Following a further 30 minute incubation, cells were assayed using a Fluorometric Imaging Plate Reader (FLIPR™) or a Tetra (both manufactured by Molecular Devices, CA) to simultaneously monitor Fluo-3 fluorescence in all wells (λexcitation=488 nm, λemission=540 nm). Changes in fluorescence were monitored for 3 minutes after the addition of 15 μM allyl isothiocyanate (AITC) as an agonist. Concentration-dependence of receptor blocking was determined by exposing each well of cells in duplicate rows of a 96-well plate to a serial dilution of test compound. The concentration series usually started at 10 μM with a three-fold serial decrement in concentration. The magnitude of the response to agonist challenge was determined by measuring the fluorescence before and 3 minutes after the addition of the agonist. The degree of blocking was determined by comparing the response to that of negative (no added antagonist) and positive (10 μM ruthenium red) control wells. Data were analyzed using a non-linear regression program (Origin; OriginLab, MA) to fit the concentration-response data to a Hill function. Antagonist potencies were determined as the concentration required to produce 50% reduction in the response as compared to the negative and positive controls.

Sequence of Human TRPA1 (O75762 whole entry): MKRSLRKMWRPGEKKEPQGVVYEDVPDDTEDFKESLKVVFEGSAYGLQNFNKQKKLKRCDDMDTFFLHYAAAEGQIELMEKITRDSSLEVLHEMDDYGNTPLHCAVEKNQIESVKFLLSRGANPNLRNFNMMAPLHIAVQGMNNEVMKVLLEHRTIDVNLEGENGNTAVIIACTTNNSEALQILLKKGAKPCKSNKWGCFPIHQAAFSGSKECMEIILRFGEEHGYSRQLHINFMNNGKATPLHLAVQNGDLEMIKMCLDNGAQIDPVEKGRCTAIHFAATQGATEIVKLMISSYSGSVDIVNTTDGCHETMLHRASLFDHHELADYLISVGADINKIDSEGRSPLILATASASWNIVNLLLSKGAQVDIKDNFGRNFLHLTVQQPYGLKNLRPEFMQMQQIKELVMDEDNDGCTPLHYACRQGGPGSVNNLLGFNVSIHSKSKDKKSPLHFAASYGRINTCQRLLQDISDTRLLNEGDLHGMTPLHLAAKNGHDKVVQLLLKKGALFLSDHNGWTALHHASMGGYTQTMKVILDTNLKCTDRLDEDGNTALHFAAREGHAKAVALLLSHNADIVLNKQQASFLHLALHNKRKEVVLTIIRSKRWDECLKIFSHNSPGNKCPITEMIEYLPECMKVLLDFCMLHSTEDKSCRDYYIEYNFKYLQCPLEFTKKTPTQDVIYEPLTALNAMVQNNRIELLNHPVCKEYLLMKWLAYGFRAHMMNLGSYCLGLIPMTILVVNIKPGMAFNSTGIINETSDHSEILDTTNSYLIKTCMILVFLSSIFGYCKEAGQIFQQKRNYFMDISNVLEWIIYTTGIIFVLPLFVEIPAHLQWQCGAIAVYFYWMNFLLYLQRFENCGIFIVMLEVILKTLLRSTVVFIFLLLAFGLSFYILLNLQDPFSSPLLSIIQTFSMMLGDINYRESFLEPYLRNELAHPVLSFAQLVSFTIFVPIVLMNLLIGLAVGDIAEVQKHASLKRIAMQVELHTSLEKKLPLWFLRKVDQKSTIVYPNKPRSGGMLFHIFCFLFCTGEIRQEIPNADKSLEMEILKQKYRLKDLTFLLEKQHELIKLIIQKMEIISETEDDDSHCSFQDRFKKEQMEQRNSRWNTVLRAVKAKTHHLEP

Row | IC50 | SMILES
1 | 0.006 µM | CN(C(=O)OC(C)(C)C)C1CCN(c2nc(CNC(=O)[C@@H]3CCCN3S(=O)(=O)c3ccc(Cl)s3)cc(-c3ccc(C(F)(F)F)cc3)n2)C1 (stereo partly drawn) [Example 38, {1-[4-({[1-(5-Chloro-thiophene-2-sulfonyl)-pyrrolidine-2S-carbonyl]-amino}-methyl)-6-(4-trifluoromethyl-phenyl)-pyrimidin-2-yl]-pyrrolidin-3-yl}-methyl-carbamic acid tert-butyl ester]
2 | 1.26 µM | N[C@H]1CCN(c2nc(CNC(=O)[C@@H]3CCCN3S(=O)(=O)c3ccc(Cl)s3)cc(-c3ccc(C(F)(F)F)cc3)n2)C1 [Example 39, 1-(5-Chloro-thiophene-2-sulfonyl)-pyrrolidine-2S-carboxylic acid [2-(3S-amino-pyrrolidin-1-yl)-6-(4-trifluoromethyl-phenyl)-pyrimidin-4-ylmethyl]-amide]
3 | 1.65 µM | N[C@@H]1CCN(c2nc(CNC(=O)[C@@H]3CCCN3S(=O)(=O)c3ccc(Cl)s3)cc(-c3ccc(C(F)(F)F)cc3)n2)C1 [Example 40, 1-(5-Chloro-thiophene-2-sulfonyl)-pyrrolidine-2S-carboxylic acid [2-(3R-amino-pyrrolidin-1-yl)-6-(4-trifluoromethyl-phenyl)-pyrimidin-4-ylmethyl]-amide]
4 | 2.92 µM | CNC1CCN(c2nc(CNC(=O)[C@@H]3CCCN3S(=O)(=O)c3ccc(Cl)s3)cc(-c3ccc(C(F)(F)F)cc3)n2)C1 (stereo partly drawn) [Example 41, 1-(5-Chloro-thiophene-2-sulfonyl)-pyrrolidine-2S-carboxylic acid [2-(3-methylamino-pyrrolidin-1-yl)-6-(4-trifluoromethyl-phenyl)-pyrimidin-4-ylmethyl]-amide]
5 | 0.012 µM | CC(C)C1CCCN1c1nc(CNC(=O)[C@@H]2CCCN2S(=O)(=O)c2ccc(Cl)s2)cc(-c2ccc(C(F)(F)F)cc2)n1 (stereo partly drawn) [Example 44, 1-(5-Chloro-thiophene-2-sulfonyl)-pyrrolidine-2S-carboxylic acid [2-(2-isopropyl-pyrrolidin-1-yl)-6-(4-trifluoromethyl-phenyl)-pyrimidin-4-ylmethyl]-amide]
6 | 2.04 µM | CC(O)CNc1nc(CNC(=O)[C@@H]2CCCN2S(=O)(=O)c2ccc(Cl)s2)cc(-c2ccc(C(F)(F)F)cc2)n1 (stereo partly drawn) [Example 45, 1-(5-Chloro-thiophene-2-sulfonyl)-pyrrolidine-2S-carboxylic acid [2-(2-hydroxy-propylamino)-6-(4-trifluoromethyl-phenyl)-pyrimidin-4-ylmethyl]-amide]
7 | 0.747 µM | CC(C)(O)CNc1nc(CNC(=O)[C@@H]2CCCN2S(=O)(=O)c2ccc(Cl)s2)cc(-c2ccc(C(F)(F)F)cc2)n1 [Example 46, 1-(5-Chloro-thiophene-2-sulfonyl)-pyrrolidine-2S-carboxylic acid [2-(2-hydroxy-2-methyl-propylamino)-6-(4-trifluoromethyl-phenyl)-pyrimidin-4-ylmethyl]-amide]
8 | 0.014 µM | COc1nc(CNC(=O)[C@@H]2CCCN2S(=O)(=O)c2ccc(Cl)s2)cc(-c2ccc(C(F)(F)F)cc2)n1 [Example 47, 1-(5-Chloro-thiophene-2-sulfonyl)-pyrrolidine-2S-carboxylic acid [2-methoxy-6-(4-trifluoromethyl-phenyl)-pyrimidin-4-ylmethyl]-amide]
9 | 0.006 µM | CC1CCCN1c1nc(CNC(=O)[C@@H]2CCCN2S(=O)(=O)c2ccc(Cl)s2)cc(-c2ccc(C(F)(F)F)cc2)n1 (stereo partly drawn) [Example 48, 1-(5-Chloro-thiophene-2-sulfonyl)-pyrrolidine-2S-carboxylic acid [2-(2-methyl-pyrrolidin-1-yl)-6-(4-trifluoromethyl-phenyl)-pyrimidin-4-ylmethyl]-amide]
10 | 0.015 µM | CCOc1nc(CNC(=O)[C@@H]2CCCN2S(=O)(=O)c2ccc(Cl)s2)cc(-c2ccc(C(F)(F)F)cc2)n1 [Example 49, 1-(5-Chloro-thiophene-2-sulfonyl)-pyrrolidine-2S-carboxylic acid [2-ethoxy-6-(4-trifluoromethyl-phenyl)-pyrimidin-4-ylmethyl]-amide]
11 | 0.036 µM | O=C(NCc1cc(-c2ccc(C(F)(F)F)cc2)nc(N2CCN(Cc3ccccc3Cl)CC2)n1)[C@@H]1CCCN1S(=O)(=O)c1ccc(F)cc1 [Example 50, 1-(4-Fluoro-benzenesulfonyl)-pyrrolidine-2S-carboxylic acid [2-[4-(2-chloro-benzyl)-piperazin-1-yl]-6-(4-trifluoromethyl-phenyl)-pyrimidin-4-ylmethyl]-amide]
12 | 0.148 µM | O=C(NCc1cc(-c2ccc(C(F)(F)F)cc2)nc(N2CCN(Cc3ccccc3OC(F)(F)F)CC2)n1)[C@@H]1CCCN1S(=O)(=O)c1ccc(F)cc1 [Example 51, 1-(4-Fluoro-benzenesulfonyl)-pyrrolidine-2S-carboxylic acid [2-[4-(2-trifluoromethoxy-benzyl)-piperazin-1-yl]-6-(4-trifluoromethyl-phenyl)-pyrimidin-4-ylmethyl]-amide]
13 | 0.013 µM | CCc1ccccc1CN1CCN(c2nc(CNC(=O)[C@@H]3CCCN3S(=O)(=O)c3ccc(F)cc3)cc(-c3ccc(C(F)(F)F)cc3)n2)CC1 [Example 52, 1-(4-Fluoro-benzenesulfonyl)-pyrrolidine-2S-carboxylic acid [2-[4-(2-ethyl-benzyl)-piperazin-1-yl]-6-(4-trifluoromethyl-phenyl)-pyrimidin-4-ylmethyl]-amide]
14 | 0.426 µM | CC(=O)N(C)C1CCN(c2nc(CNC(=O)[C@@H]3CCCN3S(=O)(=O)c3ccc(Cl)s3)cc(-c3ccc(C(F)(F)F)cc3)n2)C1 (stereo partly drawn) [Example 53, 1-(5-Chloro-thiophene-2-sulfonyl)-pyrrolidine-2S-carboxylic acid [2-[3-(acetyl-methyl-amino)-pyrrolidin-1-yl]-6-(4-trifluoromethyl-phenyl)-pyrimidin-4-ylmethyl]-amide]
15 | 1.07 µM | CCN(CC)C1CCN(c2nc(CNC(=O)[C@@H]3CCCN3S(=O)(=O)c3ccc(Cl)s3)cc(-c3ccc(C(F)(F)F)cc3)n2)C1 (stereo partly drawn) [Example 54, 1-(5-Chloro-thiophene-2-sulfonyl)-pyrrolidine-2S-carboxylic acid [2-(3-diethylamino-pyrrolidin-1-yl)-6-(4-trifluoromethyl-phenyl)-pyrimidin-4-ylmethyl]-amide]
16 | 2.55 µM | CC(C)N1CCC(CN(C)c2nc(CNC(=O)[C@@H]3CCCN3S(=O)(=O)c3ccc(Cl)s3)cc(-c3ccc(C(F)(F)F)cc3)n2)CC1 [Example 55, 1-(5-Chloro-thiophene-2S-sulfonyl)-pyrrolidine-2S-carboxylic acid [2-[(1-isopropyl-piperidin-4-ylmethyl)-methyl-amino]-6-(4-trifluoromethyl-phenyl)-pyrimidin-4-ylmethyl]-amide]
17 | 0.051 µM | CC(C)CN1CCN(c2nc(CNC(=O)[C@@H]3C=CCN3S(=O)(=O)c3ccc(Cl)s3)cc(-c3ccc(C(F)(F)F)cc3)n2)CC1 [Example 56, 1-(5-Chloro-thiophene-2-sulfonyl)-2,5-dihydro-1H-pyrrole-2S-carboxylic acid [2-(4-isobutyl-piperazin-1-yl)-6-(4-trifluoromethyl-phenyl)-pyrimidin-4-ylmethyl]-amide]
18 | 0.194 µM | CC(C)CN1CCN(c2nc(CNC(=O)[C@@H]3CC(F)(F)CN3S(=O)(=O)c3ccc(Cl)s3)cc(-c3ccc(C(F)(F)F)cc3)n2)CC1 [Example 57, 1-(5-Chloro-thiophene-2-sulfonyl)-4,4-difluoro-pyrrolidine-2S-carboxylic acid [2-(4-isobutyl-piperazin-1-yl)-6-(4-trifluoromethyl-phenyl)-pyrimidin-4-ylmethyl]-amide]

Row | SMILES | IC50
19 | CC(C)COc1nc(CNC(=O)[C@@H]2CCCN2S(=O)(=O)c2ccc(F)cc2)cc(-c2ccc(C(F)(F)F)cc2)n1 [Example 42, 1-(4-Fluoro-benzenesulfonyl)-pyrrolidine-2-carboxylic acid [2-isobutoxy-6-(4-trifluoromethyl-phenyl)-pyrimidin-4-ylmethyl]-amide] | 0.016 µM
20 | CC(C)COc1nc(CNC(=O)[C@@H]2CCCN2S(=O)(=O)c2ccc(Cl)s2)cc(-c2ccc(C(F)(F)F)cc2)n1 [Example 43, 1-(5-Chloro-thiophene-2-sulfonyl)-pyrrolidine-2S-carboxylic acid [2-isobutoxy-6-(4-trifluoromethyl-phenyl)-pyrimidin-4-ylmethyl]-amide] | 0.004 µM

Reference: patent US8614201B2 (Janssen Pharmaceutica NV, priority 2009, dated 2013)
